Laboratory results reported in ChEMBL document CHEMBL2401687, “Hypoxia induced CA9 inhibitory targeting by two different sulfonamide derivatives including acetazolamide in human glioblastoma” (Bioorg Med Chem, 2013).
Activity calls are given as the source filed them. The calls are words filed in the database; no cut-off is given here.

Tests used:
[1] = tested on: GAMG; assay: Inhibition of carbonic anhydrase 9 protein expression in human GaMG cells under hypoxic conditions at 500 nM treated prior to hypoxic-challenge by Western blotting analysis; format: functional, cell-based
[2] = tested on: GAMG; assay: Inhibition of carbonic anhydrase 9 mRNA expression in human GaMG cells under hypoxic conditions at 400 nM treated prior to hypoxic-challenge by RT-PCR analysis; format: functional, cell-based
[3] = tested on: U-87 MG; assay: Inhibition of carbonic anhydrase 9 mRNA expression in human U87MG cells under hypoxic conditions at 500 nM treated prior to hypoxic-challenge by RT-PCR analysis; format: functional, cell-based; conditions: U-87MG ATCC
[4] = Inhibition of carbonic anhydrase 9 protein expression in human U373 cells under hypoxic conditions at 500 nM treated prior to hypoxic-challenge by Western blotting analysis; format: functional, cell-based; conditions: U-373MG ATCC
[5] = tested on: U-251; assay: Inhibition of carbonic anhydrase 9 protein expression in human U251 cells under hypoxic conditions at 500 nM treated prior to hypoxic-challenge by Western blotting analysis; format: functional, cell-based
[6] = tested on: U-251; assay: Inhibition of carbonic anhydrase 9 mRNA expression in human U251 cells under hypoxic conditions at 500 nM treated prior to hypoxic-challenge by RT-PCR analysis; format: functional, cell-based
[7] = Inhibition of carbonic anhydrase 9 protein expression in human U87MG cells under hypoxic conditions at 500 nM treated prior to hypoxic-challenge by Western blotting analysis; format: functional, cell-based; conditions: U-87MG ATCC
[8] = tested on: U-373MG ATCC; assay: Inhibition of carbonic anhydrase 9 mRNA expression in human U373 cells under hypoxic conditions at 500 nM treated prior to hypoxic-challenge by RT-PCR analysis; format: functional, cell-based
[9] = tested on: U-87 MG; conditions: Homo sapiens; U-87MG ATCC
Description: Inhibition of carbonic anhydrase 9 mRNA expression in human U87MG cells under hypoxic conditions at 5000 nM treated prior to hypoxic-challenge followed by compound addition 12 hrs after first treatment by RT-PCR analysis

[10] = tested on: U-373MG ATCC; conditions: Homo sapiens
Description: Inhibition of carbonic anhydrase 9 mRNA expression in human U373 cells under hypoxic conditions at 4500 nM treated prior to hypoxic-challenge followed by compound addition 12 hrs after first treatment by RT-PCR analysis

## CN1C(=O)[C@]2(Cc3cn([C@]45C[C@@]67SS[C@@](CO)(C(=O)N6[C@H]4Nc4ccccc45)N(C)C7=O)c4ccccc34)SS[C@@]1(CO)C(=O)N2C
[1]
  inhibition: Active
[2]
  inhibition: Active
[3]
  inhibition: Active
[4]
  inhibition: inactive
[5]
  inhibition: inactive
[6]
  inhibition: Active
[7]
  inhibition: inactive
[8]
  inhibition: Active

## CC(=O)Nc1nnc(S(N)(=O)=O)s1
[9]
  inhibition: Active
[10]
  inhibition: Active
